For this assay, the target named is Nav 1.7 (Homo sapiens (Human), UniProt Q15858). The assay is described as follows: in-vitro Nav 1.7 PX (IC50). The class given is cell-based.

IC50 data for 30 compounds are collected here from US9212182B2, “Bicyclic sulfonamide compounds as sodium channel inhibitors” (AMGEN INC., priority 2013, dated 2015).

pIC50: −log10 of the molar value. Read-outs that look alike come from different tables or passages of the source.

As a reminder, the pIC50 is the negative decadic logarithm of the IC50, by convention in mol/L.

Chain of Nav 1.7 (Q15858 whole entry): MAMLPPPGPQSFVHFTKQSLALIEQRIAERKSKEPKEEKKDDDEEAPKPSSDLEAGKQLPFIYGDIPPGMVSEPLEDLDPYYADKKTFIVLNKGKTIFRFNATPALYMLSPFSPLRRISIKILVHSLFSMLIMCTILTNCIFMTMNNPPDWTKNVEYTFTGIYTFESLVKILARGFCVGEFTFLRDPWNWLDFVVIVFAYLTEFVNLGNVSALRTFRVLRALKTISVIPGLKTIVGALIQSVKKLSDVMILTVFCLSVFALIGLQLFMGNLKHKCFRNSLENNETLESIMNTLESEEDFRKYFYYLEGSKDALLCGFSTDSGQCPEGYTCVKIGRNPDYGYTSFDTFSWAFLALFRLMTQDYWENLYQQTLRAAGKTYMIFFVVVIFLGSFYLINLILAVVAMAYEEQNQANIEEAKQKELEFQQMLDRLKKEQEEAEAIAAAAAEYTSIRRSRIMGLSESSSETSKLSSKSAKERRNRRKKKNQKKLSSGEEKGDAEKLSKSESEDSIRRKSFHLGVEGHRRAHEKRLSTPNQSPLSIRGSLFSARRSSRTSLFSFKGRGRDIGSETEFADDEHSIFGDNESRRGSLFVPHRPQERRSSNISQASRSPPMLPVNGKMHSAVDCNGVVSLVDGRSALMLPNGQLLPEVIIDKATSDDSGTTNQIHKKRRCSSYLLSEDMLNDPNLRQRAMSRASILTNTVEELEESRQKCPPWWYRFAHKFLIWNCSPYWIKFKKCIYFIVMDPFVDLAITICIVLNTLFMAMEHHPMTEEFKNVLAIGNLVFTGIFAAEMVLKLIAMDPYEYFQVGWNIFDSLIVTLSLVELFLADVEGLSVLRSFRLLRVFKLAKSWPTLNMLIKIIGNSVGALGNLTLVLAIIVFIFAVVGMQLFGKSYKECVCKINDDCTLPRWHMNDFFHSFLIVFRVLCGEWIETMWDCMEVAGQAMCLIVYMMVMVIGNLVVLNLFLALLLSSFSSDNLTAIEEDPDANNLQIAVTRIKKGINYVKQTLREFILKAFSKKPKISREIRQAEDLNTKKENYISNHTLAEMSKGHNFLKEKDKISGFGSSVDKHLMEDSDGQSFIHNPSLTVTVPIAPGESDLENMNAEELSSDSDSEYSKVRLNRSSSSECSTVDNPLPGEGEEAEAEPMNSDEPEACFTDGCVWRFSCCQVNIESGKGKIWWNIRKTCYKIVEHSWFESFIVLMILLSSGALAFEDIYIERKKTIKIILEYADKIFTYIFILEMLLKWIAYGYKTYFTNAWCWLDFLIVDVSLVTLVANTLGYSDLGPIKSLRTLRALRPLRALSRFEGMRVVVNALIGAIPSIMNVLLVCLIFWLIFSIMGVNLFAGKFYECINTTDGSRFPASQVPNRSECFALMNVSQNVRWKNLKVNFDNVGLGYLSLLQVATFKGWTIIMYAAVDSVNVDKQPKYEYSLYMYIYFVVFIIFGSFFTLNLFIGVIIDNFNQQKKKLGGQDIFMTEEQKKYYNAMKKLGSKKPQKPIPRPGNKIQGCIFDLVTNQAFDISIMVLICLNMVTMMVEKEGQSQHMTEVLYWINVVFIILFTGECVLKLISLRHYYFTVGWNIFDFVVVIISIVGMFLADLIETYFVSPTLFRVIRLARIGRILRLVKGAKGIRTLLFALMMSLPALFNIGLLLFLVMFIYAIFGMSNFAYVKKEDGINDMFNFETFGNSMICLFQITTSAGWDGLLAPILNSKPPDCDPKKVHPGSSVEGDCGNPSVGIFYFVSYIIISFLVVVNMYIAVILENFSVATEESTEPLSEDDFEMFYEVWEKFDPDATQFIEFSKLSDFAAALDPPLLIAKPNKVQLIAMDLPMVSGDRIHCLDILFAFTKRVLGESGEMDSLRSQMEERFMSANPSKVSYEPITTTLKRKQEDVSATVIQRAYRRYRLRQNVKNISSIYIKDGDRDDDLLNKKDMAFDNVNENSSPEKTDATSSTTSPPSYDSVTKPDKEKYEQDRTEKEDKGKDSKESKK

As to `COc1cc(-c2ccc(Cl)cc2)c(F)cc1-n1c(=O)ccc2cc(S(=O)(=O)Nc3ncco3)ccc21` [Example 753, 1-(4′-chloro-2-fluoro-5-methoxy-4-biphenylyl)-N-1,3-oxazol-2-yl-2-oxo-1,2-dihydro-6-quinolinesulfonamide], the pIC50 (in-vitro Nav 1.7 PX data) was 7.43.

As for `COc1cc(-c2cccc(OC(C)C)c2)c(F)cc1-n1c(=O)ccc2cc(S(=O)(=O)Nc3ccon3)ccc21` [Example 823, 1-(2-fluoro-5-methoxy-3′-(1-methylethoxy)-4-biphenylyl)-N-3-isoxazolyl-2-oxo-1,2-dihydro-6-quinolinesulfonamide], the negative-log IC50 (pIC50) (in-vitro Nav 1.7 PX data) was 7.60.

`COc1cc(C[C@@H]2C[C@@H]3CC[C@H]2O3)c(F)cc1-n1c(=O)ccc2cc(S(=O)(=O)Nc3ccon3)ccc21` [Example 1087, 1-(5-fluoro-2-methoxy-4-((1R,2R,4S)-7-oxabicyclo[2.2.1]hept-2-ylmethyl)phenyl)-N-3-isoxazolyl-2-oxo-1,2-dihydro-6-quinolinesulfonamide, 1-(5-fluoro-2-methoxy-4-((1S,2S,4R)-7-oxabicyclo[2.2.1]hept-2-ylmethyl)phenyl)-N-3-isoxazolyl-2-oxo-1,2-dihydro-6-quinolinesulfonamide] gave a pIC50 (in-vitro Nav 1.7 PX data) of 5.76.

Where the note is “in-vitro Nav 1.7 PX data”, `COc1ccc(-c2cccc(F)c2)cc1-n1c(=O)ccc2cc(S(=O)(=O)Nc3ncccn3)ccc21` (atropisomer, axis not shown; (P)) [Example 606, (P)-1-(3′-fluoro-4-methoxy-3-biphenylyl)-2-oxo-N-2-pyrimidinyl-1,2-dihydro-6-quinolinesulfonamide] had a negative-log IC50 (pIC50) of 6.80.

`COc1ccc(-c2cc(F)cc(Cl)c2)cc1-n1c(=O)ccc2cc(S(=O)(=O)Nc3cnccn3)ccc21` [Example 876, 1-(3′-chloro-5′-fluoro-4-methoxy-3-biphenylyl)-2-oxo-N-2-pyrazinyl-1,2-dihydro-6-quinolinesulfonamide] had a negative-log IC50 (pIC50) (in-vitro Nav 1.7 PX data) of 6.69.

Regarding `COc1nc(-c2cc(F)cc(Cl)c2)c(Cl)cc1-n1c(=O)ccc2cc(S(=O)(=O)Nc3ccon3)ccc21` [Example 449, 1-(5-chloro-6-(3-chloro-5-fluorophenyl)-2-methoxypyridin-3-yl)-N-(isoxazol-3-yl)-2-oxo-1,2-dihydroquinoline-6-sulfonamide], the negative-log IC50 (pIC50) (in-vitro PatchXpress (PX)) was 7.07.

`COc1ccc(C2CCOCC2)cc1-n1c(=O)ccc2cc(S(=O)(=O)Nc3ccon3)ccc21` [Example 620, N-3-isoxazolyl-1-(2-methoxy-5-(tetrahydro-2H-pyran-4-yl)phenyl)-2-oxo-1,2-dihydro-6-quinolinesulfonamide]: where the note is “in-vitro Nav 1.7 PX data”, the negative logarithm of the IC50 (pIC50) is 5.09.

Under “in-vitro PatchXpress (PX)”, `COc1cc(-c2cccc(C(F)(F)F)c2)ccc1-n1c(=O)ccc2cc(S(=O)(=O)Nc3cccnn3)ccc21` (atropisomer, axis not shown; (M)) [Example 370, (M)-1-(3-methoxy-3′-(trifluoromethyl)-4-biphenylyl)-2-oxo-N-3-pyridazinyl-1,2-dihydro-6-quinolinesulfonamide] gave a pIC50 of 5.61.

`COc1cc(-c2cccc(OC)c2C)c(F)cc1-n1c(=O)ccc2cc(S(=O)(=O)Nc3ccon3)ccc21` [Example 735, 1-(2-fluoro-3′,5-dimethoxy-2′-methyl-4-biphenylyl)-N-3-isoxazolyl-2-oxo-1,2-dihydro-6-quinolinesulfonamide] had a negative-log IC50 (pIC50) (in-vitro Nav 1.7 PX data) of 7.27.

With `CCc1cccc(-c2ccc(-n3c(=O)ccc4cc(S(=O)(=O)Nc5ccon5)ccc43)c(OC)c2)c1` [Example 810, 1-(3′-ethyl-3-methoxy-4-biphenylyl)-N-3-isoxazolyl-2-oxo-1,2-dihydro-6-quinolinesulfonamide], the negative-log IC50 (pIC50) (in-vitro Nav 1.7 PX data) is 7.82.

In turn, `COc1cc(-c2cccc(F)c2)c(Cl)cc1-n1c(=O)ccc2cc(S(=O)(=O)Nc3ccncn3)ccc21` (atropisomer, axis not shown; (M)) [Example 466, (M)-1-(2-chloro-3′-fluoro-5-methoxy-[1,1′-biphenyl]-4-yl)-2-oxo-N-(pyrimidin-4-yl)-1,2-dihydroquinoline-6-sulfonamide] showed a negative logarithm of the IC50 (pIC50) of 5.36.

For the setting “in-vitro Nav 1.7 PX data”, `COc1ccc(-c2ccc(Cl)c(C)c2)cc1-n1c(=O)ccc2cc(S(=O)(=O)Nc3ccon3)ccc21` [Example 875, 1-(4′-chloro-4-methoxy-3′-methyl-3-biphenylyl)-N-3-isoxazolyl-2-oxo-1,2-dihydro-6-quinolinesulfonamide] gave a pIC50 of 7.82.

`COc1nc(-c2cccc(C)c2)c(Cl)cc1-n1c(=O)ccc2cc(S(=O)(=O)Nc3ccon3)ccc21` [Example 1088, 1-(5-chloro-2-methoxy-6-(3-methylphenyl)-3-pyridinyl)-N-3-isoxazolyl-2-oxo-1,2-dihydro-6-quinolinesulfonamide] gave a negative-log IC50 (pIC50) (in-vitro Nav 1.7 PX data) of 7.33.

Where the note is “in-vitro Nav 1.7 PX data”, `COc1cc(-c2cc(C)ccc2F)c(C)cc1-n1c(=O)ccc2cc(S(=O)(=O)Nc3ncccn3)ccc21` [Example 970, 1-(2′-fluoro-5-methoxy-2,5′-dimethyl-4-biphenylyl)-2-oxo-N-2-pyrimidinyl-1,2-dihydro-6-quinolinesulfonamide] gave a pIC50 of 7.62.

For `COc1cc(-c2cccc(OC)c2F)ccc1-n1c(=O)ccc2cc(S(=O)(=O)Nc3ccon3)ccc21` [Example 785, 1-(2′-fluoro-3,3′-dimethoxy-4-biphenylyl)-N-3-isoxazolyl-2-oxo-1,2-dihydro-6-quinolinesulfonamide], the pIC50 (in-vitro Nav 1.7 PX data) was 7.18.

For the compound `COc1cc(-c2ccc(F)cc2)c(F)cc1-n1c(=O)ccc2cc(S(=O)(=O)Nc3ncc(F)cn3)ccc21` [Example 769, 1-(2,4′-difluoro-5-methoxy-4-biphenylyl)-N-(5-fluoro-2-pyrimidinyl)-2-oxo-1,2-dihydro-6-quinolinesulfonamide], the pIC50 (in-vitro Nav 1.7 PX data) was 7.00.

With `COc1cc(C[C@H]2CCOC2)c(F)cc1-n1c(=O)ccc2cc(S(=O)(=O)Nc3ccon3)ccc21` (atropisomer, axis not shown; (P)) [Example 1234, (P)-1-(5-fluoro-2-methoxy-4-((3S)-tetrahydro-3-furanylmethyl)phenyl)-N-3-isoxazolyl-2-oxo-1,2-dihydro-6-quinolinesulfonamide], the pIC50 was 5.94.

Compound `COc1cc(-c2cc(Cl)cnc2OC)c(F)cc1-n1c(=O)ccc2cc(S(=O)(=O)Nc3ncco3)ccc21` [Example 776, 1-(4-(5-chloro-2-methoxy-3-pyridinyl)-5-fluoro-2-methoxyphenyl)-N-1,3-oxazol-2-yl-2-oxo-1,2-dihydro-6-quinolinesulfonamide] showed a negative logarithm of the IC50 (pIC50) (in-vitro Nav 1.7 PX data) of 7.27.

The compound `COc1cc(-c2cccc(Cl)c2)c(C)cc1-n1c(=O)ccc2cc(S(=O)(=O)Nc3ccon3)ccc21` (atropisomer, axis not shown; (M)) [Example 313, (M)-1-(3′-chloro-5-methoxy-2-methyl-4-biphenylyl)-N-3-isoxazolyl-2-oxo-1,2-dihydro-6-quinolinesulfonamide] gave a pIC50 of 6.10.

On to `COc1cc(-c2cccc(Cl)c2)c(C)cc1-n1c(=O)ccc2cc(S(=O)(=O)Nc3ncccn3)ccc21` (atropisomer, axis not shown; (P)) [Example 321, (P)-1-(3′-chloro-5-methoxy-2-methyl-4-biphenylyl)-2-oxo-N-2-pyrimidinyl-1,2-dihydro-6-quinolinesulfonamide], for which the pIC50 was 8.00.

In the case of `COc1nc(-c2ccc(Cl)c(C)c2)c(Cl)cc1-n1c(=O)ccc2cc(S(=O)(=O)Nc3ccon3)ccc21` [Example 1085, 1-(5-chloro-6-(4-chloro-3-methylphenyl)-2-methoxy-3-pyridinyl)-N-3-isoxazolyl-2-oxo-1,2-dihydro-6-quinolinesulfonamide], the pIC50 (in-vitro Nav 1.7 PX data) was 5.46.

For the setting “in-vitro Nav 1.7 PX data”, `COc1cc(-c2cncc(F)c2)c(F)cc1-n1c(=O)ccc2cc(S(=O)(=O)Nc3ccon3)ccc21` [Example 730, 1-(5-fluoro-4-(5-fluoro-3-pyridinyl)-2-methoxyphenyl)-N-3-isoxazolyl-2-oxo-1,2-dihydro-6-quinolinesulfonamide] showed a negative-log IC50 (pIC50) of 6.10.

`COc1cc(-c2cccc3c2OCC3)ccc1-n1c(=O)ccc2cc(S(=O)(=O)Nc3ccon3)ccc21` [Example 789, 1-(4-(2,3-dihydro-1-benzofuran-7-yl)-2-methoxyphenyl)-N-3-isoxazolyl-2-oxo-1,2-dihydro-6-quinolinesulfonamide]: for the setting “in-vitro Nav 1.7 PX data”, the negative-log IC50 (pIC50) is 7.05.

`CCOc1cccc(-c2ccc(-n3c(=O)ccc4cc(S(=O)(=O)Nc5ccon5)ccc43)c(OC)c2)c1` [631/779, 1-(3′-ethoxy-3-methoxy-4-biphenylyl)-N-3-isoxazolyl-2-oxo-1,2-dihydro-6-quinolinesulfonamide]: the pIC50 (in-vitro Nav 1.7 PX data) is 7.62.

The compound `COc1cc(-c2ccc(Cl)cc2C(N)=O)c(F)cc1-n1c(=O)ccc2cc(S(=O)(=O)Nc3ccon3)ccc21` [Example 755, 4-chloro-2′-fluoro-4′-(6-(3-isoxazolylsulfamoyl)-2-oxo-1(2H)-quinolinyl)-5′-methoxy-2-biphenylcarboxamide] showed a pIC50 (in-vitro Nav 1.7 PX data) of 6.45.

`COc1nc(C2CC2)c(Cl)cc1-n1c(=O)ccc2cc(S(=O)(=O)Nc3ccon3)ccc21` (atropisomer, axis not shown; (M)) [Example 1229, (M)-1-(5-chloro-6-cyclopropyl-2-methoxy-3-pyridinyl)-N-3-isoxazolyl-2-oxo-1,2-dihydro-6-quinolinesulfonamide] gave a negative-log IC50 (pIC50) of 4.76.

Compound `COc1cc(-c2cc(F)cc(C(F)(F)F)c2)ccc1-n1c(=O)ccc2cc(S(=O)(=O)Nc3ncccn3)ccc21` [Example 1097] showed a pIC50 (in-vitro Nav 1.7 PX data) of 7.30.

Consider `COCCCOc1nc(OC)c(-n2c(=O)ccc3cc(S(=O)(=O)Nc4ccon4)ccc32)cc1Cl` [Example 831, 1-(5-chloro-2-methoxy-6-(3-methoxypropoxy)-3-pyridinyl)-N-3-isoxazolyl-2-oxo-1,2-dihydro-6-quinolinesulfonamide], for which the negative logarithm of the IC50 (pIC50) (in-vitro Nav 1.7 PX data) is 5.42.

In the case of `COc1cc(CC2CCCCC2)c(F)cc1-n1c(=O)ccc2cc(S(=O)(=O)Nc3ncc(F)cn3)ccc21` [Example 1111, 1-(4-(cyclohexylmethyl)-5-fluoro-2-methoxyphenyl)-N-(5-fluoro-2-pyrimidinyl)-2-oxo-1,2-dihydro-6-quinolinesulfonamide], the pIC50 (in-vitro Nav 1.7 PX data) is 7.06.

As for `COc1cc(-c2cccc(OC(C)C)c2)ccc1-n1c(=O)ccc2cc(S(=O)(=O)Nc3cccc(F)n3)ccc21` (atropisomer, axis not shown; (P)) [Example 1208, (P)-N-(6-fluoro-2-pyridinyl)-1-(3-methoxy-3′-(1-methylethoxy)-4-biphenylyl)-2-oxo-1,2-dihydro-6-quinolinesulfonamide], the negative logarithm of the IC50 (pIC50) is 6.59.
